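Method: 48-hour compound exposure of cells in 96-well plates, five concentrations, linear interpolation of endpoints. The concentration for 50% growth inhibition is given as GI50.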 Activity calls are given as the source filed them. Cut-off read from the data, not from the text of the source: active = GI50 up to about 1.1 µM and inactive = higher.
How the values were obtained:
Assay in all cases: NCI-60 cell line screen, 48 h
Malme-3M = test system: Malme-3M
MOLT-4 = test system: MOLT-4
SK-OV-3 = test system: SK-OV-3
SF-268 = test system: SF-268
UO-31 = test system: UO-31
OVCAR-3 = test system: OVCAR-3
SW-620 = test system: SW-620
DLD-1 = test system: DLD-1
SN12C = test system: SN12C
HT-29 = test system: HT-29
NCI-H23 = test system: NCI-H23
M19-MEL = test system: M19-MEL
HCT-15 = test system: HCT-15
SF-539 = test system: SF-539
SF-295 = test system: SF-295
NCI-H522 = test system: NCI-H522
U-251 = test system: U-251
SK-MEL-2 = test system: SK-MEL-2
SNB-19 = test system: SNB-19
KM-20L2 = test system: KM-20L2
NCI-H226 = test system: NCI-H226
HOP-92 = test system: HOP-92
LOX IMVI = test system: LOX IMVI
CCRF-CEM = test system: CCRF-CEM
XF498 = test system: XF498
UACC-62 = test system: UACC-62
CAKI-1 = test system: CAKI-1
HL-60 = test system: HL-60
HCT-116 = test system: HCT-116
ACHN = test system: ACHN
SK-MEL-28 = test system: SK-MEL-28
M14 = test system: M14
K562 = test system: K562
DMS-273 = test system: DMS-273
SNB-75 = test system: SNB-75
TK-10 = test system: TK-10
UACC-257 = test system: UACC-257
LXFL 529 = test system: LXFL 529
786-0 = test system: 786-0
IGROV-1 = test system: IGROV-1
KM12 = test system: KM12
EKVX = test system: EKVX
RPMI-8226 = test system: RPMI-8226
SR = test system: SR
A549 = test system: A549
HOP-62 = test system: HOP-62
COLO 205 = test system: COLO 205
RXF 393 = test system: RXF 393
NCI/ADR-RES = test system: NCI/ADR-RES
T47D = test system: T47D
MDA-MB-231 = test system: MDA-MB-231
A498 = test system: A498
MDA-MB-435 = test system: MDA-MB-435
BT-549 = test system: BT-549
DU-145 = test system: DU-145
MDA-N = test system: MDA-N
OVCAR-8 = test system: OVCAR-8
PC-3 = test system: PC-3
OVCAR-5 = test system: OVCAR-5
MCF7 = test system: MCF7
DMS-114 = test system: DMS-114
OVCAR-4 = test system: OVCAR-4
NCI-H460 = test system: NCI-H460
HCC 2998 = test system: HCC 2998
Hs-578T = test system: Hs-578T
SNB-78 = test system: SNB-78
HOP-18 = test system: HOP-18
SK-MEL-5 = test system: SK-MEL-5

Structure (SMILES): N#CC(C(=O)C(=O)Nc1ccccc1)c1ccccc1 (configuration not stated)
- GI50 (Malme-3M): > 100 µM (inactive)
- GI50 (MOLT-4): > 100 µM (inactive)
- GI50 (SK-OV-3): > 100 µM (inactive)
- GI50 (SF-268): > 100 µM (inactive)
- GI50 (UO-31): > 100 µM (inactive)
- GI50 (OVCAR-3): > 100 µM (inactive)
- GI50 (SW-620): > 100 µM (inactive)
- GI50 (DLD-1): > 100 µM (inactive)
- GI50 (SN12C): > 100 µM (inactive)
- GI50 (HT-29): > 100 µM (inactive)
- GI50 (NCI-H23): > 100 µM (inactive)
- GI50 (M19-MEL): > 100 µM (inactive)
- GI50 (HCT-15): > 100 µM
- GI50 (SF-539): > 100 µM (inactive)
- GI50 (SF-295): > 100 µM (inactive)
- GI50 (NCI-H522): > 100 µM (inactive)
- GI50 (U-251): > 100 µM (inactive)
- GI50 (SK-MEL-2): > 100 µM (inactive)
- GI50 (SNB-19): > 100 µM (inactive)
- GI50 (KM-20L2): > 100 µM (inactive)
- GI50 (NCI-H226): > 100 µM (inactive)
- GI50 (HOP-92): > 100 µM (inactive)
- GI50 (LOX IMVI): > 100 µM (inactive)
- GI50 (CCRF-CEM): > 100 µM (inactive)
- GI50 (XF498): > 100 µM (inactive)
- GI50 (UACC-62): > 100 µM (inactive)
- GI50 (CAKI-1): > 100 µM (inactive)
- GI50 (HL-60): > 100 µM (inactive)
- GI50 (HCT-116): > 100 µM (inactive)
- GI50 (ACHN): > 100 µM (inactive)
- GI50 (SK-MEL-28): > 100 µM (inactive)
- GI50 (M14): > 100 µM (inactive)
- GI50 (K562): > 100 µM (inactive)
- GI50 (DMS-273): > 100 µM (inactive)
- GI50 (SNB-75): > 100 µM (inactive)
- GI50 (TK-10): > 100 µM (inactive)
- GI50 (UACC-257): > 100 µM (inactive)
- GI50 (LXFL 529): > 100 µM (inactive)
- GI50 (786-0): > 100 µM (inactive)
- GI50 (IGROV-1): > 100 µM (inactive)
- GI50 (KM12): > 100 µM (inactive)
- GI50 (EKVX): > 100 µM (inactive)
- GI50 (RPMI-8226): > 100 µM (inactive)
- GI50 (SR): > 100 µM (inactive)
- GI50 (A549): > 100 µM (inactive)

Structure (SMILES): CS(=O)(=O)C(C#N)c1nc2ccccc2nc1Cl (configuration not stated)
- GI50 (Malme-3M): > 100 µM (inactive)
- GI50 (MOLT-4): > 100 µM (inactive)
- GI50 (SK-OV-3): > 100 µM (inactive)
- GI50 (SF-268): > 74 µM (inactive)
- GI50 (UO-31): > 100 µM (inactive)
- GI50 (OVCAR-3): > 72.1 µM (inactive)
- GI50 (SW-620): > 100 µM (inactive)
- GI50 (HOP-62): > 100 µM (inactive)
- GI50 (DLD-1): 4.18 µM (inactive)
- GI50 (SN12C): > 100 µM (inactive)
- GI50 (COLO 205): > 100 µM (inactive)
- GI50 (RXF 393): > 100 µM (inactive)
- GI50 (NCI/ADR-RES): > 36.5 µM (inactive)
- GI50 (T47D): > 100 µM (inactive)
- GI50 (HT-29): > 100 µM (inactive)
- GI50 (NCI-H23): > 100 µM (inactive)
- GI50 (M19-MEL): 5.68 µM (inactive)
- GI50 (MDA-MB-231): > 100 µM (inactive)
- GI50 (A498): > 28.1 µM (inactive)
- GI50 (HCT-15): > 35.2 µM
- GI50 (SF-539): > 28.5 µM (inactive)
- GI50 (SF-295): > 100 µM (inactive)
- GI50 (MDA-MB-435): > 100 µM (inactive)
- GI50 (BT-549): > 100 µM (inactive)
- GI50 (NCI-H522): > 53.7 µM (inactive)
- GI50 (U-251): > 100 µM (inactive)
- GI50 (DU-145): > 100 µM (inactive)
- GI50 (SK-MEL-2): > 22.4 µM (inactive)
- GI50 (MDA-N): > 100 µM (inactive)
- GI50 (OVCAR-8): > 19.5 µM (inactive)
- GI50 (SNB-19): > 100 µM (inactive)
- GI50 (NCI-H226): > 100 µM (inactive)
- GI50 (PC-3): > 100 µM (inactive)
- GI50 (HOP-92): > 100 µM (inactive)
- GI50 (LOX IMVI): > 100 µM (inactive)
- GI50 (OVCAR-5): > 39.9 µM (inactive)
- GI50 (CCRF-CEM): > 94 µM (inactive)
- GI50 (XF498): > 100 µM (inactive)
- GI50 (UACC-62): > 100 µM (inactive)
- GI50 (CAKI-1): > 66.5 µM (inactive)
- GI50 (MCF7): > 100 µM (inactive)
- GI50 (HL-60): > 100 µM (inactive)
- GI50 (HCT-116): > 100 µM (inactive)
- GI50 (ACHN): > 100 µM (inactive)
- GI50 (DMS-114): > 100 µM (inactive)
- GI50 (SK-MEL-28): > 100 µM (inactive)
- GI50 (M14): > 100 µM (inactive)
- GI50 (OVCAR-4): > 73.5 µM (inactive)
- GI50 (NCI-H460): > 30.5 µM (inactive)
- GI50 (HCC 2998): > 32.2 µM (inactive)
- GI50 (K562): > 100 µM (inactive)
- GI50 (DMS-273): > 100 µM (inactive)
- GI50 (SNB-75): > 100 µM (inactive)
- GI50 (TK-10): > 32.6 µM (inactive)
- GI50 (UACC-257): > 73.3 µM (inactive)
- GI50 (LXFL 529): > 100 µM (inactive)
- GI50 (IGROV-1): > 66.5 µM (inactive)
- GI50 (KM12): > 34.4 µM (inactive)
- GI50 (EKVX): > 100 µM (inactive)
- GI50 (RPMI-8226): > 100 µM (inactive)
- GI50 (Hs-578T): 70.6 µM (inactive)
- GI50 (SR): > 100 µM (inactive)
- GI50 (SNB-78): > 100 µM (inactive)
- GI50 (A549): > 100 µM (inactive)

Structure (SMILES): C#C[C@]1(O)CCCC2=CC(=O)CC[C@@]21C
- GI50 (Malme-3M): > 100 µM (inactive)
- GI50 (MOLT-4): > 100 µM (inactive)
- GI50 (SK-OV-3): > 100 µM (inactive)
- GI50 (SF-268): > 100 µM (inactive)
- GI50 (UO-31): > 100 µM (inactive)
- GI50 (HOP-18): > 100 µM (inactive)
- GI50 (OVCAR-3): > 100 µM (inactive)
- GI50 (SW-620): > 100 µM (inactive)
- GI50 (DLD-1): > 100 µM (inactive)
- GI50 (SN12C): > 100 µM (inactive)
- GI50 (COLO 205): > 100 µM (inactive)
- GI50 (RXF 393): > 100 µM (inactive)
- GI50 (HT-29): > 100 µM (inactive)
- GI50 (NCI-H23): > 100 µM (inactive)
- GI50 (M19-MEL): > 100 µM (inactive)
- GI50 (HCT-15): > 100 µM
- GI50 (SF-539): > 100 µM (inactive)
- GI50 (SF-295): > 100 µM (inactive)
- GI50 (NCI-H522): > 100 µM (inactive)
- GI50 (U-251): > 100 µM (inactive)
- GI50 (SK-MEL-2): > 100 µM (inactive)
- GI50 (OVCAR-8): > 100 µM (inactive)
- GI50 (SNB-19): > 100 µM (inactive)
- GI50 (KM-20L2): > 100 µM (inactive)
- GI50 (NCI-H226): > 100 µM (inactive)
- GI50 (HOP-92): > 100 µM (inactive)
- GI50 (OVCAR-5): > 100 µM (inactive)
- GI50 (CCRF-CEM): > 100 µM (inactive)
- GI50 (SK-MEL-5): > 100 µM (inactive)
- GI50 (HL-60): > 100 µM (inactive)
- GI50 (ACHN): > 100 µM (inactive)
- GI50 (DMS-114): > 100 µM (inactive)
- GI50 (SK-MEL-28): > 100 µM (inactive)
- GI50 (M14): > 100 µM (inactive)
- GI50 (NCI-H460): > 100 µM (inactive)
- GI50 (HCC 2998): > 100 µM (inactive)
- GI50 (K562): > 100 µM (inactive)
- GI50 (DMS-273): > 100 µM (inactive)
- GI50 (TK-10): > 100 µM (inactive)
- GI50 (UACC-257): > 100 µM (inactive)
- GI50 (LXFL 529): > 100 µM (inactive)
- GI50 (786-0): > 100 µM (inactive)
- GI50 (IGROV-1): > 100 µM (inactive)
- GI50 (KM12): > 100 µM (inactive)
- GI50 (EKVX): > 100 µM (inactive)
- GI50 (RPMI-8226): > 100 µM (inactive)
- GI50 (SR): > 100 µM (inactive)
- GI50 (A549): > 100 µM (inactive)
